From PubChem BioAssay AID2060492 (Molecular Pharmacology Branch, DTP, NCI, 2025)

System: 695427-040-R-J1-PDC complex spheroids, viability percent T/C
Assay: Anticancer human tumor 695427-040-R-J1-PDC patient-derived colon adenocarcinoma cell line growth inhibition [GQUAD]
Conditions: for IC50: curve of first compound; for viability, T/C: stronger effect = lower value
Text: DNA G-quadruplex Stabilizer Agents in Combinations in Complex Spheroids
A high-throughput screen of multi-cell type tumor spheroids was designed to identify active combinations of DNA G-quadruplex stabilizer agents and targeted small molecules. Complex spheroids include a stromal component modeled by human endothelial cells (HUVEC) and fibroblasts modeled by human mesenchymal stem cells (MSCs). The concentration ranges selected for each drug and investigational agent were based upon clinically achievable concentrations if the clinical Cmax of the agent was known.
Compounds. The drugs and investigational agents: pidnarulex (CX-5461; NSC782164), APTO-253 (NSC789042), BRACO-19 (NSC847499), peposertib (NSC802822), ceralasertib (NSC780249), elimusertib (NSC800525), camonsertib (NSC841442), AZD-1390 (NSC803789), olaparib (NSC753686), talazoparib (NSC767125), ART-558 (NSC835418), sotorasib (NSC818433), MRTX-1133 (NSC836407), SN-38 (NSC673596), topotecan (NSC609699), etoposide (NSC141540), doxorubicin (NSC123127), gemcitabine (NSC613327), 5-fluorouracil (NSC19893), paclitaxel (NSC125973), vemurafenib (NSC761431), panobinostat (NSC761190), R-306465 (JNJ-16241199; NSC773264), adavosertib (NSC754352), TP-3654 (NSC805149), carboplatin (NSC241240), KSQ-4279 (NSC840948), and staurosporine (NSC755774) were obtained from the National Cancer Institute (NCI) Developmental Therapeutics Program Chemical Repository (34). The FDA-approved anticancer drug set is available from the NCI Developmental Therapeutics Program. […] The stock solutions were prepared in dimethyl sulfoxide (DMSO, Sigma-Aldrich, St. Louis, MO, cat. D2650) at 800-fold the tested concentration and stored at -70 degrees C prior to their use. All drugs and investigational agents were tested over a range starting from a high concentration at or near the clinical Cmax and decreasing in half-log increments. If the clinical Cmax for an agent had not been determined, the highest concentration tested was 10 microM.
2.3 Cell Culture. All cells were maintained in an incubator at 37 degrees C and 5% CO2 with 95% humidity. The PDC lines were cultured according to standard operating procedures established by the NCI PDMR. All PDCs were thawed and cultured in Matrigel-coated flasks prepared with a working solution of 1X Ham's F-12 nutrient mix, without supplementation (Invitrogen, cat. 11765054), 100 U/mL penicillin-streptomycin (Invitrogen, cat. 15140122), and 2.5% Matrigel (Corning Inc., cat. 354248) for the first three passages. The 857933-349-R-J2-PDC line was cultured in 6C/Colon 1B media, which includes advanced DMEM/F-12 (Thermo Fisher Scientific, cat. 12634028), 10 mM HEPES (Thermo Fisher Scientific, cat. 15630080), 1X GlutaMAX supplement (Thermo Fisher Scientific, cat. 35050061), 0.1 mg/mL primocin (InvivoGen, cat. ant-pm-2), 10% defined fetal bovine serum, heat inactivated (HyClone Laboratories Inc., cat. SH30070.03HI), 50% L-WRN conditioned media (ATCC, cat. CRL-3276), 1.25 mM N-Acetyl-L-cysteine (Sigma-Aldrich, cat. A9165), 10 mM nicotinamide (Sigma-Aldrich, cat. N0636), 1X B-27 supplement (Thermo Fisher Scientific, cat. 17504044), 1X N-2 supplement (Thermo Fisher Scientific, cat. 17502048), 10 microM Y-27632 dihydrochloride (Tocris Bioscience, cat. 1254), and 50 ng/mL human EGF recombinant protein (Thermo Fisher Scientific, cat. PHG0311). The 485176-168-R4-J1-PDC line was cultured in Panc media, which includes all 6C/Colon 1B media components plus 100 ng/mL human FGF-10 (Thermo Fisher Scientific, cat. 100-26), 500 nM SB-431542 (Selleckchem, cat. S1067), and gastrin (Tocris, cat. 3006).
[…]

[1] = second compound 0.0316 µM, first compound 0.0316 µM
[2] = second compound 0.0316 µM, first compound 0.1 µM
[3] = second compound 0.0316 µM, first compound 0.316 µM
[4] = second compound 0.0316 µM, first compound 1 µM
[5] = second compound 0.0316 µM, first compound 3.16 µM
[6] = second compound 0.0316 µM, first compound 10 µM
[7] = second compound 0.1 µM, first compound 0.0316 µM
[8] = second compound 0.1 µM, first compound 0.1 µM
[9] = second compound 0.1 µM, first compound 0.316 µM
[10] = second compound 0.1 µM, first compound 1 µM
[11] = second compound 0.1 µM, first compound 3.16 µM
[12] = second compound 0.1 µM, first compound 10 µM
[13] = second compound 0.316 µM, first compound 0.0316 µM
[14] = second compound 0.316 µM, first compound 0.1 µM
[15] = second compound 0.316 µM, first compound 0.316 µM
[16] = second compound 0.316 µM, first compound 1 µM
[17] = second compound 0.316 µM, first compound 3.16 µM
[18] = second compound 0.316 µM, first compound 10 µM
[19] = second compound 1 µM, first compound 0.0316 µM
[20] = second compound 1 µM, first compound 0.1 µM
[21] = second compound 1 µM, first compound 0.316 µM
[22] = second compound 1 µM, first compound 1 µM
[23] = second compound 1 µM, first compound 3.16 µM
[24] = second compound 1 µM, first compound 10 µM
[25] = second compound 3.16 µM, first compound 0.0316 µM
[26] = second compound 3.16 µM, first compound 0.1 µM
[27] = second compound 3.16 µM, first compound 0.316 µM
[28] = second compound 3.16 µM, first compound 1 µM
[29] = second compound 3.16 µM, first compound 3.16 µM
[30] = second compound 3.16 µM, first compound 10 µM
[31] = second compound 10 µM, first compound 0.0316 µM
[32] = second compound 10 µM, first compound 0.1 µM
[33] = second compound 10 µM, first compound 0.316 µM
[34] = second compound 10 µM, first compound 1 µM
[35] = second compound 10 µM, first compound 3.16 µM
[36] = second compound 10 µM, first compound 10 µM
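Also: spheroids exposed to compounds for seven days before readout.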

Molecule `CC1COCCN1c1cc(-c2ccnn2C)c2ccnc(-c3ccn[nH]3)c2n1` (centres undefined) + CN(C)c1ccc(Nc2c3ccc(NC(=O)CCN4CCCC4)cc3nc3cc(NC(=O)CCN4CCCC4)ccc23)cc1 has an IC50 (second compound 0.0316 µM) of 1250 nM, an IC50 (second compound 0.1 µM) of 1360 nM and an IC50 (second compound 0.316 µM) of 1240 nM. For the same molecule, the IC50 (second compound 1 µM) was 942 nM, the IC50 (second compound 3.16 µM) was 749 nM and the IC50 (second compound 10 µM) was 454 nM. The viability, T/C [1] was 95.2%, the viability, T/C [2] was 78.8% and the viability, T/C [3] was 63%. It also gave a viability, T/C [4] of 51%, a viability, T/C [5] of 44.9% and a viability, T/C [6] of 39.4%. It also gave a viability, T/C [7] of 100%, a viability, T/C [8] of 75.9% and a viability, T/C [9] of 63.9%. The viability, T/C [10] was 52%, the viability, T/C [11] was 45.3% and the viability, T/C [12] was 39.1%. The viability, T/C [13] was 87.7%, the viability, T/C [14] was 76.3% and the viability, T/C [15] was 56.3%. It also gave a viability, T/C [16] of 49.3%, a viability, T/C [17] of 46.8% and a viability, T/C [18] of 42.4%. It also gave a viability, T/C [19] of 96.7%, a viability, T/C [20] of 81.9% and a viability, T/C [21] of 60.3%. For the same molecule, the viability, T/C [22] was 49.7%, the viability, T/C [23] was 45.9% and the viability, T/C [24] was 39.1%. It also gave a viability, T/C [25] of 89.3%, a viability, T/C [26] of 74.5% and a viability, T/C [27] of 55.5%. It also gave a viability, T/C [28] of 48.9%, a viability, T/C [29] of 43.8% and a viability, T/C [30] of 39.9%. For the same molecule, the viability, T/C [31] was 86%, the viability, T/C [32] was 66.1% and the viability, T/C [33] was 50.5%. For the same molecule, the viability, T/C [34] was 46.8%, the viability, T/C [35] was 40.2% and the viability, T/C [36] was 37%.
`Cc1cccc(N(C)C(=O)C2C(O)CCN2c2nc(C)cc(C(F)(F)F)c2C#N)c1` (centres undefined) + CN(C)c1ccc(Nc2c3ccc(NC(=O)CCN4CCCC4)cc3nc3cc(NC(=O)CCN4CCCC4)ccc23)cc1 was tested, and the IC50 (second compound 0.0316 µM) was greater than 10000 nM, the IC50 (second compound 0.1 µM) was greater than 10000 nM and the IC50 (second compound 0.316 µM) was greater than 10000 nM. For the same molecule, the IC50 (second compound 1 µM) was greater than 10000 nM, the IC50 (second compound 3.16 µM) was greater than 10000 nM and the IC50 (second compound 10 µM) was greater than 10000 nM. The viability, T/C [1] was 111%, the viability, T/C [2] was 103% and the viability, T/C [3] was 106%. The viability, T/C [4] was 99.9%, the viability, T/C [5] was 107% and the viability, T/C [6] was 90.3%. It also gave a viability, T/C [7] of 110%, a viability, T/C [8] of 92.3% and a viability, T/C [9] of 106%. For the same molecule, the viability, T/C [10] was 102%, the viability, T/C [11] was 101% and the viability, T/C [12] was 95.6%. It also gave a viability, T/C [13] of 110%, a viability, T/C [14] of 101% and a viability, T/C [15] of 97.3%. The viability, T/C [16] was 98.2%, the viability, T/C [17] was 107% and the viability, T/C [18] was 103%. It also gave a viability, T/C [19] of 104%, a viability, T/C [20] of 90.7% and a viability, T/C [21] of 98.3%. It also gave a viability, T/C [22] of 96.1%, a viability, T/C [23] of 104% and a viability, T/C [24] of 101%. It also gave a viability, T/C [25] of 93.6%, a viability, T/C [26] of 94.6% and a viability, T/C [27] of 95.4%. For the same molecule, the viability, T/C [28] was 95.6%, the viability, T/C [29] was 106% and the viability, T/C [30] was 93.9%. The viability, T/C [31] was 81%, the viability, T/C [32] was 86.6% and the viability, T/C [33] was 88.9%. The viability, T/C [34] was 78.8%, the viability, T/C [35] was 91.2% and the viability, T/C [36] was 85.8%.
